Test systems include MDA-MB-435; NCI-H460 lung; NCI/ADR-RES ovarian; OVCAR-4 ovarian; PC-3 prostate; SF-268 CNS; SF-295 CNS; SK-MEL-5 melanoma; SNB-19 CNS; SNB-75 CNS.
Holding throughout (assay): NCI tumour cell line growth inhibition, 48 h

SMILES strings stand for the structures. “And” between values parts separate entries of the source, which are not always exact repeats. Equal entries are not always repeated.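 Step 1: Grow cells in 96-well plates. Step 2: Expose to compound for 48 hours at 5 concentrations. Step 3: Interpolate endpoints linearly; if unreached, use highest concentration. GI50 is the concentration that inhibits growth by half. TGI denotes the concentration required for complete inhibition of growth.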

Turning to `O=P(O)(CCP(=O)(O)c1ccccc1)c1ccccc1`, the TGI in the assay on MDA-MB-435, in the assay with NCI-H460 lung, in the assay with NCI/ADR-RES ovarian, in the assay on OVCAR-4 ovarian, in the assay on PC-3 prostate and in the assay on SF-268 CNS was above 100 µM throughout. The TGI with SF-295 CNS, in the assay with SK-MEL-5 melanoma, in the assay with SNB-19 CNS and with SNB-75 CNS was above 100 µM in each case.

`CCOc1cc2ncc(C#N)c(Nc3ccc(OCc4cccc(F)c4)c(Cl)c3)c2cc1NC(=O)CC1CCSS1` (stereo not drawn): the GI50 in the assay on MDA-MB-435 is 0.596 µM; in the assay on NCI-H460 lung, 0.465 µM; with NCI/ADR-RES ovarian it was above 25 µM; with OVCAR-4 ovarian, 0.539 µM; with PC-3 prostate it was 0.801 µM; in the assay on SF-268 CNS, 0.727 µM. Moreover, the GI50 in the assay with SF-295 CNS was above 25 µM; with SK-MEL-5 melanoma, 2.39 µM; in the assay with SNB-19 CNS it was above 25 µM; in the assay with SNB-75 CNS, above 25 µM. In addition, the TGI in the assay with MDA-MB-435 was 1.52 µM; with NCI-H460 lung, 0.948 µM; with NCI/ADR-RES ovarian it was above 25 µM; in the assay on OVCAR-4 ovarian, 1.36 µM; with PC-3 prostate it was 5.91 µM; with SF-268 CNS, 3.02 µM. Also, the TGI in the assay with SF-295 CNS, with SK-MEL-5 melanoma, in the assay with SNB-19 CNS and in the assay on SNB-75 CNS was above 25 µM throughout.

Regarding `CC(=O)n1c(COS(C)(=O)=O)nc2ccccc21`, the TGI in the assay on MDA-MB-435, in the assay with NCI-H460 lung, with NCI/ADR-RES ovarian, in the assay with OVCAR-4 ovarian, in the assay with PC-3 prostate and in the assay on SF-268 CNS was above 100 µM in each case. The TGI in the assay with SF-295 CNS, in the assay with SK-MEL-5 melanoma, in the assay on SNB-19 CNS and in the assay with SNB-75 CNS was above 100 µM throughout.

Take `O=[N+]([O-])C1C(c2ccccc2)C12c1ccccc1-c1ccccc12` (stereo not drawn): the GI50 was 0.188 µM in the assay on MDA-MB-435; 0.589 µM with NCI-H460 lung; 0.657 µM with NCI/ADR-RES ovarian; 3.56 µM in the assay with OVCAR-4 ovarian; 0.947 µM in the assay with PC-3 prostate; 2.3 µM in the assay on SF-268 CNS. In addition, the GI50 is 0.598 µM in the assay with SF-295 CNS, 0.515 µM in the assay on SK-MEL-5 melanoma, 12.4 µM in the assay with SNB-19 CNS and 0.612 µM in the assay on SNB-75 CNS. In addition, the TGI in the assay with MDA-MB-435 is 0.454 µM; in the assay with NCI-H460 lung it was 10.7 µM; in the assay with NCI/ADR-RES ovarian, above 23.7 µM; in the assay with OVCAR-4 ovarian it was above 100 µM; in the assay on PC-3 prostate it was above 100 µM; with SF-268 CNS, 28 µM. Moreover, the TGI in the assay on SF-295 CNS is 43.9 µM; in the assay with SK-MEL-5 melanoma, 9.48 µM; in the assay on SNB-19 CNS it was above 100 µM; with SNB-75 CNS it was 14 µM.

In the case of `COc1ccc(C(=O)/C(Br)=C/C(=O)O)cc1`, the GI50 in the assay with MDA-MB-435 is 8.18 µM; in the assay on NCI-H460 lung it was 14.4 µM; in the assay on NCI/ADR-RES ovarian, 18.3 µM; in the assay on PC-3 prostate, 74.5 µM; with SF-268 CNS, 27.3 µM; with SF-295 CNS, 33.5 µM. The GI50 was 12.7 µM in the assay on SK-MEL-5 melanoma and 56.3 µM with SNB-19 CNS. Further, the TGI in the assay with MDA-MB-435 is 111 µM and 33.5 µM; in the assay on NCI-H460 lung, 300 µM and 72 µM; in the assay with NCI/ADR-RES ovarian, 387 µM and 116 µM; with OVCAR-4 ovarian, 125 µM and 120 µM; in the assay on PC-3 prostate it was 159 µM and 257 µM; in the assay with SF-268 CNS, 202 µM and 225 µM. Also, the TGI in the assay with SF-295 CNS was 175 µM and 140 µM; in the assay with SK-MEL-5 melanoma it was 39.6 µM and 47.7 µM; with SNB-19 CNS, 188 µM and 375 µM; in the assay on SNB-75 CNS, 145 µM and 186 µM.

As to `CNC(=O)c1cc(OC2CCC(NC(=O)Nc3ccc(Cl)c(C(F)(F)F)c3)CC2)ccn1` (stereo not drawn), the GI50 with MDA-MB-435 was 4.16 µM; in the assay with NCI-H460 lung, 6.92 µM; with NCI/ADR-RES ovarian it was 5.67 µM; with OVCAR-4 ovarian, 4.53 µM; with PC-3 prostate, 3.51 µM; in the assay on SF-268 CNS, 13.7 µM. Also, the GI50 in the assay on SF-295 CNS was 4.95 µM; with SK-MEL-5 melanoma, 3.07 µM; in the assay with SNB-19 CNS it was 7.91 µM; with SNB-75 CNS, 16 µM. In addition, the TGI is 24.8 µM with MDA-MB-435; 28.6 µM in the assay with NCI-H460 lung; 44.3 µM with NCI/ADR-RES ovarian; 49.6 µM in the assay with OVCAR-4 ovarian; above 44.6 µM with PC-3 prostate; 52 µM with SF-268 CNS. The TGI in the assay on SF-295 CNS came to 26.6 µM; in the assay on SK-MEL-5 melanoma, 10.9 µM; in the assay on SNB-19 CNS, 32.2 µM; in the assay with SNB-75 CNS, 38.9 µM.

For `CN1CC[C@@H](c2c(O)cc(O)c3c(=O)cc(-c4ccccc4Cl)oc23)[C@@H](O)C1`, the GI50 is 0.0886 µM and 0.0744 µM in the assay with MDA-MB-435; 0.0681 µM and 0.0693 µM with NCI-H460 lung; 0.256 µM and 0.0763 µM in the assay on NCI/ADR-RES ovarian; 0.17 µM in the assay on OVCAR-4 ovarian; 0.0655 µM and 0.0735 µM in the assay with PC-3 prostate; 0.0577 µM and 0.0288 µM in the assay with SF-268 CNS. The GI50 with SF-295 CNS is 0.0994 µM and 0.0955 µM and 0.0425 µM; in the assay on SK-MEL-5 melanoma, 0.0631 µM; in the assay on SNB-19 CNS it was 0.103 µM; in the assay with SNB-75 CNS, 0.0975 µM. Besides, the TGI in the assay with MDA-MB-435 is 0.261 µM and 0.22 µM and 0.342 µM; with OVCAR-4 ovarian, 0.68 µM and 3.61 µM; in the assay with SK-MEL-5 melanoma, 0.265 µM and 0.182 µM; in the assay with SNB-19 CNS, above 37.3 µM; in the assay on SNB-75 CNS, 0.25 µM and 0.0894 µM.

Regarding `COc1cc([C@H]2c3cc4c(cc3O[C@@]3(O)COC(=O)[C@@H]23)OCO4)cc(OC)c1OC`, the TGI with MDA-MB-435, in the assay with NCI-H460 lung, in the assay with NCI/ADR-RES ovarian, in the assay on OVCAR-4 ovarian, in the assay with PC-3 prostate and with SF-268 CNS was above 100 µM in each case. Besides, the TGI in the assay with SF-295 CNS, in the assay with SK-MEL-5 melanoma, with SNB-19 CNS and with SNB-75 CNS was above 100 µM each time.

For `CC(=O)Nc1ccc2c(c1)c(C1=C(c3cn(C)c4ccccc34)C(=O)NC1=O)cn2C`, the GI50 in the assay on MDA-MB-435 is 0.198 µM; in the assay on NCI-H460 lung it was 0.986 µM; in the assay with NCI/ADR-RES ovarian it was 1.58 µM; in the assay on OVCAR-4 ovarian it was 2.54 µM; in the assay on PC-3 prostate it was 0.754 µM; in the assay on SF-268 CNS, 1.41 µM. In addition, the GI50 with SF-295 CNS was 1.18 µM; with SK-MEL-5 melanoma, 1.45 µM; in the assay with SNB-19 CNS, above 18.2 µM; with SNB-75 CNS it was 0.465 µM. Also, the TGI in the assay with MDA-MB-435 is above 25 µM; in the assay with NCI-H460 lung it was above 25 µM; with NCI/ADR-RES ovarian, above 25 µM; in the assay on OVCAR-4 ovarian, above 17.6 µM; in the assay on PC-3 prostate, 22.1 µM; with SF-268 CNS, above 25 µM. Moreover, the TGI in the assay with SF-295 CNS is above 25 µM; with SK-MEL-5 melanoma it was above 25 µM; in the assay on SNB-19 CNS, above 25 µM; with SNB-75 CNS, above 6.67 µM.
